Test results taken from the supplement of paper PMC10307832.

Legend:
Experiment in all cases: relative viability (nuclei count vs DMSO), 5 days (fraction); higher = more cells survive
[1] = compound: CCCS(=O)(=O)Nc1ccc(F)c(C(=O)c2c[nH]c3ncc(-c4ccc(Cl)cc4)cc23)c1F [Vemurafenib] + CC(=O)c1c(C)c2cnc(Nc3ccc(N4CCNCC4)cn3)nc2n(C2CCCC2)c1=O [Palbociclib] (partner 0.5 µM)
Procedure, shortened: (§1)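 Relative viability equals treated-well nuclei counts divided by vehicle-well nuclei counts. Counts came from 4× images of lung cancer cell lines grown in 1536-well plates for 5 days after pin-tool dosing on the day after seeding. Dosing used one drug alone or a fixed anchor-drug dose plus five library-drug doses (not always all listed) in √10 steps, and values are medians of duplicate plates.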

OSI-027 + Luminespib = compound: COc1cccc2cc(-c3nc([C@H]4CC[C@H](C(=O)O)CC4)n4ncnc(N)c34)[nH]c12 [OSI-027] + CCNC(=O)c1noc(-c2cc(C(C)C)c(O)cc2O)c1-c1ccc(CN2CCOCC2)cc1 [Luminespib] (partner 0.01 µM)
Procedure, shortened: as §1

OSI-027 + Pictilisib = compound: COc1cccc2cc(-c3nc([C@H]4CC[C@H](C(=O)O)CC4)n4ncnc(N)c34)[nH]c12 [OSI-027] + CS(=O)(=O)N1CCN(Cc2cc3nc(-c4cccc5[nH]ncc45)nc(N4CCOCC4)c3s2)CC1 [Pictilisib] (partner 1 µM)
Procedure, shortened: as §1

OSI-027 + Linsitinib = compound: COc1cccc2cc(-c3nc([C@H]4CC[C@H](C(=O)O)CC4)n4ncnc(N)c34)[nH]c12 [OSI-027] + C[C@]1(O)C[C@@H](c2nc(-c3ccc4ccc(-c5ccccc5)nc4c3)c3c(N)nccn32)C1 [Linsitinib] (partner 1 µM)
Procedure, shortened: as §1

Cell Line	relative viability ([1]; first compound 0.03162 µM)	relative viability ([1]; first compound 0.1 µM)	relative viability ([1]; first compound 0.3162 µM)	relative viability ([1]; first compound 1 µM)	relative viability (OSI-027 + Luminespib; first compound 0.01 µM)	relative viability (OSI-027 + Luminespib; first compound 0.03162 µM)	relative viability (OSI-027 + Luminespib; first compound 0.1 µM)	relative viability (OSI-027 + Luminespib; first compound 0.3162 µM)	relative viability (OSI-027 + Luminespib; first compound 1 µM)	relative viability (OSI-027 + Pictilisib; first compound 0.01 µM)	relative viability (OSI-027 + Pictilisib; first compound 0.03162 µM)	relative viability (OSI-027 + Pictilisib; first compound 0.1 µM)	relative viability (OSI-027 + Pictilisib; first compound 0.3162 µM)	relative viability (OSI-027 + Pictilisib; first compound 1 µM)	relative viability (OSI-027 + Linsitinib; first compound 0.01 µM)	relative viability (OSI-027 + Linsitinib; first compound 0.03162 µM)	relative viability (OSI-027 + Linsitinib; first compound 0.1 µM)	relative viability (OSI-027 + Linsitinib; first compound 0.3162 µM)	relative viability (OSI-027 + Linsitinib; first compound 1 µM)
NCI-H2342	0.512	0.461	0.541	0.548	0.783	0.616	0.82	0.617	0.514	–	–	–	–	–	–	–	–	–	–
SW 1573	0.203	0.435	0.382	0.383	0.235	0.19	0.184	0.214	0.13	0.466	0.436	0.458	0.357	0.205	0.777	0.712	0.771	0.586	0.462
NCI-H1792	0.623	0.581	–	0.643	0.737	0.268	0.37	0.422	0.18	0.288	0.166	0.213	0.161	0.232	0.466	0.237	0.394	0.229	0.22
LOU-NH91	0.515	0.497	0.536	0.551	0.312	0.308	0.333	0.306	0.315	0.544	0.555	0.489	0.472	0.447	0.954	0.902	0.808	0.69	0.521
LC-2-ad	0.449	0.466	0.481	0.442	1.05	1.1	0.862	0.874	0.659	0.427	0.373	0.501	0.474	0.221	0.847	0.751	0.803	0.694	0.291
HOP-62	0.436	0.437	0.371	0.396	0.954	0.904	0.957	0.926	0.363	0.565	0.76	0.467	0.674	0.254	0.952	1.2	1.04	0.712	0.359
NCI-H650	0.359	0.288	0.241	0.287	0.757	0.731	0.749	0.648	0.381	0.882	0.745	0.702	0.452	0.345	0.701	0.892	0.492	0.442	0.334
NCI-H1651	0.511	0.463	0.488	0.53	0.866	0.691	1.08	0.79	0.725	0.538	–	0.504	0.464	0.282	0.938	–	0.801	0.514	0.285
CAL-12T	0.408	0.251	0.444	0.439	0.342	0.533	0.589	0.0997	0.117	0.401	0.394	0.315	0.299	0.294	0.704	0.753	0.724	0.445	0.353
LK-2	0.621	0.599	0.602	0.311	0.172	0.193	0.159	0.173	0.137	0.627	0.474	0.305	0.251	0.23	0.523	0.184	0.396	0.289	0.138
EKVX	0.41	–	0.367	0.422	0.743	0.8	0.872	0.727	0.604	0.456	0.384	0.368	0.302	0.177	0.986	0.894	0.779	0.652	0.292
EMC-BAC-2	0.491	0.416	0.407	0.468	1.24	1.17	0.95	0.864	0.379	0.597	0.47	0.469	0.431	0.376	0.824	0.762	0.763	0.607	0.305
NCI-H520	0.222	0.188	0.221	0.222	0.258	0.37	0.211	0.168	0.202	0.31	0.268	0.219	0.17	0.145	1.08	0.931	0.888	0.614	0.311
NCI-H322M	0.444	–	0.557	0.475	0.84	0.831	0.66	0.446	0.369	0.574	0.443	0.485	0.416	0.405	0.805	0.778	0.787	0.589	0.868
COR-L 105	0.405	–	0.328	0.403	0.58	0.707	0.862	0.526	0.472	0.389	0.453	0.358	0.377	0.254	1.07	0.737	0.966	0.749	0.431
NCI-H2170	0.403	–	0.396	0.344	0.844	0.639	0.565	0.544	0.176	0.284	0.295	0.245	0.266	0.258	–	–	–	–	–
NCI-H358	0.113	0.139	0.175	0.132	0.384	0.295	0.468	0.41	0.311	0.334	0.333	0.273	0.267	0.284	0.676	0.503	0.671	0.376	0.366
